Experiment [1] relates to Plasmodium falciparum strain NF54. In words: Growth inhibition of Plasmodium falciparum NF54 (chloroquine-sensitive) in vitro, [G-3H]-hypoxanthin incorporation. The class given is cell-based. The note with it: chloroquine-sensitive strain NF54, 72 h, read-out: IC50 for P. falciparum NF54. The gist of the method: (§1)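 Asynchronous intraerythrocytic cultures in human A+ erythrocytes (0.7% parasitemia, 2.5% suspension) in RPMI 1640 with HEPES, NaHCO3 and human serum, exposed to compound titrated over 6-7 steps for 72 h at 37° C, 3% O2. Growth by [G-3H]-hypoxanthin incorporation against untreated controls; IC50 by logit regression.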

For experiment [2], the system named is Plasmodium berghei. Kind of experiment: animal or person. It counts as in vivo, Plasmodium berghei (strain ANKA) in mice. The following applies: Plasmodium berghei, mice, blood smears 48 h after treatment. A digest of the protocol: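 Male albino mice (~25 g) infected i.v. on D0 with P. berghei ANKA (0.2 ml of 10^8 parasitized erythrocytes/ml); single s.c. and p.o. dose 24 h post-infection, 10 mg/kg screen then titration.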

In experiment [3] the test system is Plasmodium falciparum K1. In words: Growth inhibition of Plasmodium falciparum K1 (chloroquine-resistant) in vitro, [G-3H]-hypoxanthin incorporation. The following applies: for IC50: Plasmodium falciparum, K1, 72 h, read-out: IC50 for P. falciparum K1; for Resistance index: ratio of the IC50 for K1 and the IC50 for NF54. It counts as cell-based, Plasmodium falciparum (strain K1). A digest of the protocol:
as §1

Where [4] appears, read: po, single peroral dose of 10 mg/kg, read-out: Growth inhibition in % after po administration (GI%, percentage reduction of the parasitemia).
The mark [5] stands for this setting: sc, single subcutaneous dose of 10 mg/kg, read-out: Growth inhibition in % after sc administration (GI%, percentage reduction of the parasitemia).

Structures are written as SMILES. Values after ≈ are worked out from the molar mass of the structure shown. Where two headings read alike, the source gives them in different places.

As for `COc1cc(CCN[C@H]2CC[C@H](Nc3ccnc4cc(Cl)ccc34)CC2)cc(OC)c1.Cl.Cl` [Example 94, trans-N1-(7-Chloro-quinolin-4-yl)-N4-[2-(3,5-dimethoxy-phenyl)-ethyl]-cyclohexane-1,4-diamine dihydrochloride], the IC50 is 2.9 ng/mL in experiment [1] and 9.8 ng/mL in experiment [3]. The inhibition in vivo at 10 mg/kg in experiment [2] (setting [4]) was determined as 99%; in experiment [2] (setting [5]) it was 99.9%. Also, in experiment [3], the Resistance index came out at 3.4.
The corresponding values for `Cl.Cl.Clc1ccc2c(N[C@H]3CC[C@H](NCCc4ccc5c(c4)OCO5)CC3)ccnc2c1` [Example 95, trans-N1-(2-Benzo[1,3]dioxol-5-yl-ethyl)-N4-(7-chloro-quinolin-4-yl)-cyclohexane-1,4-diamine dihydrochloride] are 2.7 ng/mL, 9.3 ng/mL, 98%, 99.7% and 3.4.
Consider `Cl.Cl.Clc1cccc(CCN[C@H]2CC[C@H](Nc3ccnc4cc(Cl)ccc34)CC2)c1` [Example 96, trans-N1-[2-(3-Chloro-phenyl)-ethyl]-N4-(7-chloro-quinolin-4-yl)-cyclohexane-1,4-diamine dihydrochloride], for which the IC50 in experiment [1] came out at 1.6 ng/mL; in experiment [3] it was 9 ng/mL. Also, the inhibition in vivo at 10 mg/kg in experiment [2] (setting [4]) amounted to 95%; in experiment [2] (setting [5]), 98%. For the same compound, the Resistance index in experiment [3] turned out to be 5.6.
With `COc1ccc(OC)c(CCN[C@H]2CC[C@H](Nc3ccnc4cc(Cl)ccc34)CC2)c1.Cl.Cl` [Example 97, trans-N1-(7-Chloro-quinolin-4-yl)-N4-[2-(2,5-dimethoxy-phenyl)-ethyl]-cyclohexane-1,4-diamine dihydrochloride], the results for the IC50 in experiment [1] and in experiment [3] were 4.1 ng/mL and 17.8 ng/mL, respectively. Also, the results for the inhibition in vivo at 10 mg/kg in experiment [2] (setting [4]) and in experiment [2] (setting [5]) were 49% and 99%, respectively. Further, the Resistance index in experiment [3] was determined as 4.3.
`Cl.Cl.Clc1ccc2c(N[C@H]3CC[C@H](NCCc4ccc(Oc5ccccc5)cc4)CC3)ccnc2c1` [Example 98, trans-N1-(7-Chloro-quinolin-4-yl)-N4-[2-(4-phenoxy-phenyl)-ethyl]-cyclohexane-1,4-diamine dihydrochloride]: the results for the IC50 in experiment [1] and in experiment [3] were 4.5 ng/mL and 8.5 ng/mL, respectively. Further, the inhibition in vivo at 10 mg/kg was 50% in experiment [2] (setting [4]) and 93% in experiment [2] (setting [5]). For the same compound, in experiment [3], the Resistance index is listed as 1.9.
For the compound `Cl.Cl.Clc1ccc2c(N[C@H]3CC[C@H](NCCc4ccc(Cl)c(Cl)c4)CC3)ccnc2c1` [Example 99, trans-N1-(7-Chloro-quinolin-4-yl)-N4-[2-(3,4-dichloro-phenyl)-ethyl]-cyclohexane-1,4-diamine dihydrochloride], the IC50 was 3.3 ng/mL in experiment [1] and 4.2 ng/mL in experiment [3]. For the same compound, the inhibition in vivo at 10 mg/kg in experiment [2] (setting [4]) is 91%; in experiment [2] (setting [5]) it was 96%. In addition, the Resistance index in experiment [3] was found to be 1.3.
The corresponding values for `COc1ccc(CN[C@H]2CC[C@H](Nc3ccnc4cc(Cl)ccc34)CC2)cc1.Cl.Cl` [Example 100, trans N1-(7-Chloro-quinolin-4-yl)-N4-(4-methoxy-benzyl)-cyclohexane-1,4-diamine dihydrochloride] are 1.9 ng/mL, 4 ng/mL, 14%, 99% and 2.1.
In the case of `Cl.Cl.Clc1ccc2c(N[C@H]3CC[C@H](NCCc4c(Cl)cccc4Cl)CC3)ccnc2c1` [Example 101, trans-N1-(7-Chloro-quinolin-4-yl)-N4-[2-(2,6-dichloro-phenyl)-ethyl]-cyclohexane-1,4-diamine dihydrochloride], the IC50 came out at 2.7 ng/mL in experiment [1] and 2.9 ng/mL in experiment [3]. The inhibition in vivo at 10 mg/kg in experiment [2] (setting [4]) amounted to 72%; in experiment [2] (setting [5]), 84%. In addition, the Resistance index in experiment [3] stood at 1.1.
Regarding `Cl.Cl.Clc1ccc2c(N[C@H]3CC[C@H](NCc4ccc(Cl)c(Cl)c4)CC3)ccnc2c1` [Example 102, trans N1-(7-Chloro-quinolin-4-yl)-N4-(3,4-dichloro-benzyl)-cyclohexane-1,4-diamine dihydrochloride], the IC50 in experiment [1] came out at 2.1 ng/mL; in experiment [3], 3.6 ng/mL. The figures for the inhibition in vivo at 10 mg/kg in experiment [2] (setting [4]) and in experiment [2] (setting [5]) were 72% and 81%, respectively. In experiment [3], the Resistance index is reported as 1.7.
For `Cl.Cl.Clc1ccc2c(N[C@H]3CC[C@H](NCc4ccc5c(c4)OCO5)CC3)ccnc2c1` [Example 103, trans-N1 -Benzo[1,3]dioxol-5-ylmethyl-N4-(7-chloro-quinolin-4-yl)-cyclohexane-1,4-diamine dihydrochloride], the IC50 in experiment [1] was 2.1 ng/mL; in experiment [3] it was 4.6 ng/mL. For the same compound, the values for the inhibition in vivo at 10 mg/kg in experiment [2] (setting [4]) and in experiment [2] (setting [5]) were 89% and 99.8%, respectively. Moreover, in experiment [3], the Resistance index came to 2.2.
Take `COc1cc(CCN[C@H]2CC[C@H](Nc3ccnc4cc(Cl)ccc34)CC2)ccc1O.Cl.Cl` [Example 104, trans-4-{2-[4-(7-Chloro-quinolin-4-ylamino)-cyclohexylamino]-ethyl}-2-methoxy-phenol dihydrochloride]: the figures for the IC50 in experiment [1] and in experiment [3] were 3.6 ng/mL and 20.2 ng/mL, respectively. The inhibition in vivo at 10 mg/kg in experiment [2] (setting [4]) is 63%; in experiment [2] (setting [5]), 100%. Further, the Resistance index in experiment [3] is on record as 5.6.
Consider `COc1cccc(CCN[C@H]2CC[C@H](Nc3ccnc4cc(Cl)ccc34)CC2)c1OC.Cl.Cl` [Example 105, trans-N1-(7-Chloro-quinolin-4-yl)-N4-[2-(2,3-dimethoxy-phenyl)-ethyl]-cyclohexane-1,4-diamine dihydrochloride], for which the IC50 was determined as 3.4 ng/mL in experiment [1] and 15.3 ng/mL in experiment [3]. The inhibition in vivo at 10 mg/kg is 55% in experiment [2] (setting [4]) and 99% in experiment [2] (setting [5]). The Resistance index in experiment [3] is 4.5.
For the compound `COc1cc(CN[C@H]2CC[C@H](Nc3ccnc4cc(Cl)ccc34)CC2)cc(OC)c1` [Example 106, trans-N1-(7-Chloro-quinolin-4-yl)-N4-(3,5-dimethoxy-benzyl)-cyclohexane-1,4-diamine], the IC50 in experiment [1] amounted to 1.5 ng/mL (≈ 3.52 nM); in experiment [3], 4.4 ng/mL (≈ 10.3 nM). The inhibition in vivo at 10 mg/kg in experiment [2] (setting [4]) was 98%; in experiment [2] (setting [5]), 99.5%. For the same compound, in experiment [3], the Resistance index was determined as 2.9.
For `Cl.Cl.Clc1cccc(CN[C@H]2CC[C@H](Nc3ccnc4cc(Cl)ccc34)CC2)c1` [Example 107, trans-N1-(3-Chloro-benzyl)-N4-(7-chloro-quinolin-4-yl)-cyclohexane-1,4-diamine dihydrochloride] the same measures were 1.4 ng/mL, 3.4 ng/mL, 84%, 95% and 2.4.
Consider `COc1cc(OC)c(CN[C@H]2CC[C@H](Nc3ccnc4cc(Cl)ccc34)CC2)c(OC)c1.Cl.Cl` [Example 108, trans N1-(7-Chloro-quinolin-4-yl)-N4-(2,4,6-trimethoxy-benzyl)-cyclohexane-1,4-diamine dihydrochloride], for which the IC50 in experiment [1] is 4.6 ng/mL; in experiment [3] it was 18.4 ng/mL. Besides, the inhibition in vivo at 10 mg/kg turned out to be 110% in experiment [2] (setting [4]) and 100% in experiment [2] (setting [5]). Besides, the Resistance index in experiment [3] amounted to 4.0.
In the case of `Cl.Cl.Clc1ccc(CN[C@H]2CC[C@H](Nc3ccnc4cc(Cl)ccc34)CC2)c(Cl)c1` [Example 109, trans-N1-(7-Chloro-quinolin-4-yl)-N4-(2,4-dichloro-benzyl)-cyclohexane-1,4-diamine dihydrochloride], the results for the half-inhibitory concentration (IC50) in experiment [1] and in experiment [3] were 1.8 ng/mL and 3.8 ng/mL, respectively. The values for the inhibition in vivo at 10 mg/kg in experiment [2] (setting [4]) and in experiment [2] (setting [5]) were 75% and 91%, respectively. Moreover, in experiment [3], the Resistance index was found to be 2.1.
As to `COc1ccc(CN[C@H]2CC[C@H](Nc3ccnc4cc(Cl)ccc34)CC2)cc1OC.Cl.Cl` [Example 110, trans-N1-(7-Chloro-quinolin-4-yl)-N4-(3,4-dimethoxy-benzyl)-cyclohexane-1,4-diamine dihydrochloride], the IC50 in experiment [1] came out at 2.8 ng/mL; in experiment [3] it was 17.2 ng/mL. The results for the inhibition in vivo at 10 mg/kg in experiment [2] (setting [4]) and in experiment [2] (setting [5]) were 45% and 99.6%, respectively. Also, in experiment [3], the Resistance index worked out at 6.1.
`COc1ccc(CN[C@H]2CC[C@H](Nc3ccnc4cc(Cl)ccc34)CC2)c(OC)c1.Cl.Cl` [Example 111, trans-N1 (7-Chloro-quinolin-4-yl)-N4-(2,4-dimethoxy-benzyl)-cyclohexane-1,4-diamine dihydrochloride]: the concentration for half-maximal inhibition (IC50) was 2.9 ng/mL in experiment [1] and 10.4 ng/mL in experiment [3]. Besides, the inhibition in vivo at 10 mg/kg in experiment [2] (setting [4]) turned out to be 25%; in experiment [2] (setting [5]) it was 99.8%. Moreover, in experiment [3], the Resistance index is 3.6.
Take `COc1cc(CN[C@H]2CC[C@H](Nc3ccnc4cc(Cl)ccc34)CC2)cc(OC)c1OC.Cl.Cl` [Example 112, trans-N1-(7-Chloro-quinolin-4-yl)-N4-(3,4,5-trimethoxy-benzyl)-cyclohexane-1,4-diamine dihydrochloride]: the values for the 50% inhibitory concentration (IC50) in experiment [1] and in experiment [3] were 4.3 ng/mL and 17.2 ng/mL, respectively. The figures for the inhibition in vivo at 10 mg/kg in experiment [2] (setting [4]) and in experiment [2] (setting [5]) were 99% and 99.9%, respectively. Moreover, the Resistance index in experiment [3] is given as 4.0.

(Values after patent publication US5948791A, “Quinoline derivatives for treating malaria” (Hoffmann-La Roche Inc., priority 1995, dated 1999).)
